In patent US9802902B2, “Antifungal compound” (priority 2012, dated 2017):

Legend:
[1] = test system: C. albicans biofilms supported on contact lenses; assay: Biofilm susceptibility (in vitro keratitis model treatment); assay type: cell-based, Candida albicans
Description: The contact lenses were washed with PBS and immersed in YM broth overnight before they were punched into smaller pieces of 2 mm in diameter. To grow C. albicans biofilms, the lenses were placed in 6-well tissue culture plates with 4 mL of yeast suspension (10^7 CFU/mL) and incubated for 3 hours at 22° C. The contact lenses were gently washed with PBS to remove non-adherent yeast cells and immersed in YM broth for 48 hours at 22° C. with shaking at 100 rpm. Biofilms were quantified using direct plate counting. The yeast cells on contact lens were detached and dispersed in PBS by ultrasonication for 3 minutes. After making 10-fold dilutions, 20-μL sampling aliquots were plated on solid Lysogeny broth (LB) plate and incubated at 22° C. for 48 hours before the colony number was counted for determination of surviving CFU. Data from triplicate plate counts were averaged.
The C. albicans biofilms supported on contact lenses were transferred to fungicidal agent-containing PBS, and incubated at 22° C. for 24 hours. The biofilms were ultrasonicated for 3 minutes, and then serially diluted in PBS. The viable yeast cells were enumerated as described above.

[2] = test system: C. albicans keratitis; assay: Contact lens-associated C. albicans keratitis model in mouse; assay type: in vivo; details: 1000 μg/mL topical eye drops; for corneal counts of C. albicans: 6 eyeballs homogenized; for clinical score (slit lamp, grade 0-4): after treatment, ± standard deviation
Description: 8-week-old adult C57BL/6 mice (18-22 g) were used for animal studies. All mice eyes were examined for absence of ocular pathology before experiments were initiated. The experimental protocol was approved by the Institutional Animal Care and Use Committee of Biological Resource Centre, Agency for Science, Technology and Research (A*STAR), Singapore.
The black mouse keratitis model was established by employing contact lens biofilm infection, which is described as follows. The mice were anesthetized by ketamine (150 mg/kg) and xylazine ([…]) via intraperitoneal injection (I.P.). Additional topical anesthetic in the form of 0.5% tetracaine hydrochloride eye drops (Bausch & Lomb, Tampa, Fla.) was also administered.
A total of 45 mice were used in this study. A 1-mm filter paper disc moistened with 99% 1-heptanol (Sigma-Aldrich, Lausanne, Switzerland) was placed on the center of the cornea for 40 seconds. The corneal epithelium was traumatically wiped out and the eyes were rinsed with PBS to remove any remaining traces of 1-heptanol. A 2 mm-diameter punch from the contact lense with C. albicans biofilm was then placed on the denuded cornea surface. The contact lenses were kept inside the eyes by closing the eye lids with silk sutures. The C. albicans cells were grown on the eyeball 18 hours after inoculation; eye ulcer with a leathery, tough, raised surface was observed. A disease grading from 0 (no disease) to 4 (severe disease) was established for evaluating treatment efficacy (see Table 1 below). The mice were immune suppressed by subcutaneous injection of cyclophosphamide (Sigma-Aldrich, […]).
To investigate the potential application of these two compounds in fungi keratitis treatment, C. albicans keratitis model was established using mouse. The contact lenses with C. albicans biofilm were kept inside the mice eyes by closing the lids with silk sutures. 18 hours after inoculation, the C. albicans cells were grown on the eyeball. Eye ulcer with a leathery, tough, raised surface was observed. The animals were randomly treated with 5 topical eye drop solutions: saline solution (control), 1000 μg/mL of PIM-45, 1000 μg/mL of IBN-1, 1000 μg/mL of amphotericin B, and 1000 μg/mL of fluconazole. Eye drops (20 μl each) were administered to the mice every 5 minutes during the first hour and every 30 minutes during the next 7 hours. After a pause of 16 hours, eye drops were administered at hourly intervals for another 8 hours. All mice were sacrificed 16 hours after the administration of the last eye drop. The treated eyeballs were collected immediately; three eyeballs from each group were collected for histology, and the remaining 6 eyeballs were homogenized for quantitative fungal recovery study. The fixed eyeballs were embedded in paraffin, sectioned and stained with Grocott's methenamine silver by standard protocol.

Structure (SMILES)	effective concentration in killing biofilm-grown yeast cells ([1]; C. albicans biofilm on contact lens, PBS, 22° C., 24 hours) [ppm]	hyphal invasion into cornea (histology) [2]	corneal counts of C. albicans [2] [lg CFU/eye]	clinical score (slit lamp, grade 0-4) [2]	destruction of C. albicans biofilm ([1]; at 250 ppm)
C[C@@H]1[C@H](O)[C@@H](C)/C=C/C=C/C=C/C=C/C=C/C=C/C=C/[C@H](O[C@@H]2O[C@H](C)[C@@H](O)[C@H](N)[C@@H]2O)C[C@@H]2O[C@](O)(C[C@@H](O)C[C@@H](O)[C@H](O)CC[C@@H](O)C[C@@H](O)CC(=O)O[C@H]1C)C[C@H](O)[C@H]2C(=O)O [amphotericin B]	250	reduced the maximal depth of hyphal invasion into cornea	3.3	2.2±0.4	–
OC(Cn1cncn1)(Cn1cncn1)c1ccc(F)cc1F [fluconazole]	–	fungal hyphae extended through the epithelium and into the anterior stroma	5.1	3.5±0.5	only slightly destroyed
